Biological target: T1, FAP (Homo sapiens (Human), UniProt Q12884)
Experiment: FAP protease inhibition assay (FAM-labeled substrate peptide, microfluidic electrophoresis)
Format: biochemical
Conditions: enzyme 0.5 nM, substrate peptide 1 uM, 15 minutes pre-incubation, three hours for human FAP
Protocol: Protease reactions were assembled in 384 well plates (Greiner) in a total volume of 20 uL as described below.
Recombinant proteins were pre-diluted in assay buffer comprising of 100 mM HEPES, pH 7.5, 0.1% BSA, 0.01% Triton X-100, 1 mM DTT, and dispensed into 384 well plate (10 uL per well). Test compounds were serially pre-diluted in DMSO and added to the assay wells by acoustic dispensing (Labcyte Echo 550). Control samples (0%-inhibition in the absence of inhibitor, DMSO only) and 100%-inhibition (in the absence of enzyme) were assembled in replicates of four and used to calculate the %-inhibition in the presence of compounds. Concentration of DMSO was equalized to 1% in all samples.
Compounds were pre-incubated with enzymes for 15 minutes. Human FAP was obtained from Enzo, catalogue number BML-SE409-0010. […] Final concentration of enzymes were 0.5 nM. Final concentration of substrate peptides was 1 uM.
The reactions were allowed to proceed at room temperature. Incubation time was three hours for human FAP, 0.5 hours for mouse FAP.
Terminated plates were analyzed using a microfluidic electrophoresis instrument (Caliper LabChip® 3000, Caliper Life Sciences/Perkin Elmer). A change in relative intensity of the peptide substrate and cleaved product was the parameter measured. Activity in each test sample was determined as the product to sum ratio (PSR):P/(S+P), where P is the peak height of the product, and S is the peak height of the substrate. Percent inhibition (Pinh) was determined using the following equation: Pinh=(PSR0% inh−PSRcompound)/(PSR0% inh−PSR100% inh)*100, in which: PSRcompound is the product/sum ratio in the presence of compound, PSR0% inh is the product/sum ratio in the absence of compound and the PSR100% inh is the product/sum ratio in the absence of the enzyme.

T1 sequence (Q12884 whole entry): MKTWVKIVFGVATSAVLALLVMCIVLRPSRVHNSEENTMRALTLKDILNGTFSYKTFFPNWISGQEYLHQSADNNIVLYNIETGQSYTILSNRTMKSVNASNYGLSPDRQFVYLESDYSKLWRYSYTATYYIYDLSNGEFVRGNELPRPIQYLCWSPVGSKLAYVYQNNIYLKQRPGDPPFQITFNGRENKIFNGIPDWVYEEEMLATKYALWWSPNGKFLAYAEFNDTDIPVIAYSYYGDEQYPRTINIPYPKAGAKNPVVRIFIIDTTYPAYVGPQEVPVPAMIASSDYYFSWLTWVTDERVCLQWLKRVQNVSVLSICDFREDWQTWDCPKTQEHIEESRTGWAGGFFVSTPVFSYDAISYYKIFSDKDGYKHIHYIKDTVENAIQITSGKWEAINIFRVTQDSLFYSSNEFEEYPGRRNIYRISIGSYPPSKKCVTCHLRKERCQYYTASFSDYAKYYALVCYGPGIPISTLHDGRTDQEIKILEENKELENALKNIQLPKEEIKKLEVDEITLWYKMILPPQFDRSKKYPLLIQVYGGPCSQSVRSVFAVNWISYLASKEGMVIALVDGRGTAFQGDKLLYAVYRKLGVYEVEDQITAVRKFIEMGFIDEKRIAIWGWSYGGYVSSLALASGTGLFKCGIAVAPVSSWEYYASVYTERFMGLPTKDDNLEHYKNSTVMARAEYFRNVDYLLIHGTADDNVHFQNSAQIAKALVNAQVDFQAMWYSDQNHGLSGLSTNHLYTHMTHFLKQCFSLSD

| Molecule | IC50 [nM] |
| --- | --- |
| 2,2′,2″-(10-(8-(1-((4-((2-((R)-2-boronopyrrolidin-1-yl)-2-oxoethyl)carbamoyl)quinolin-7-yl)oxy)-2-oxo-6,9,12-trioxa-3-azapentadecanamido)-39-carboxy-48-(4-isobutylphenyl)-2,9,37,45-tetraoxo-13,16,19,22,25,28,31,34-octaoxa-3,10,38,44-tetraazaoctatetracontyl)-1,4,7,10-tetraazacyclo-dodecane-1,4,7-triyl)triacetic acid [RTX-1357R] | < 0.1 |
| CC(C)Cc1ccc(CCCC(=O)NCCCC[C@H](NC(=O)[C@H](CCCCNC(=O)CN2CCN(CC(=O)O)CCN(CC(=O)O)CCN(CC(=O)O)CC2)NC(=O)CCOCCOCCOCCNC(=O)COc2ccc3c(C(=O)NCC(=O)N4CCC[C@H]4C#N)ccnc3c2)C(=O)O)cc1 [RTX-1352S] | < 0.1 |
| CC(C)Cc1ccc(CCCC(=O)NCCCC[C@H](NC(=O)[C@H](CCCCNC(=O)CN2CCN(CC(=O)O)CCN(CC(=O)O)CCN(CC(=O)O)CC2)NC(=O)CCOCCOCCOCCNC(=O)COc2ccc3c(C(=O)NCC(=O)N4CCC[C@H]4B(O)O)ccnc3c2)C(=O)O)cc1 [RTX-1356R] | 0.1 to 0.5 |
| CC(=O)NCCCC[C@H](NC(=O)[C@H](CCCCNC(=O)CN1CCN(CC(=O)O)CCN(CC(=O)O)CC1)NC(=O)CCOCCOCCOCCNC(=O)COc1ccc2c(C(=O)NCC(=O)N3CCC[C@H]3C#N)ccnc2c1)C(=O)O [RTX-1339S] | 0.1 to 0.5 |
| CC(=O)NCCCC[C@H](NC(=O)[C@H](CCCCNC(=O)c1ccc(F)c(C(F)(F)F)c1)NC(=O)CCOCCOCCOCCNC(=O)COc1ccc2c(C(=O)NCC(=O)N3CCC[C@H]3C#N)ccnc2c1)C(=O)O [RTX-1325S] | 0.5 to 5 |
| COc1ccc2c(C(=O)NCC(=O)N3CCC[C@H]3C#N)ccnc2c1 [RTX-1326S, 7-Methoxy-quinoline-4-carboxylic Acid [2-((S)-2-cyano-pyrrolidin-1-yl)-2-oxo-ethyl]-amide] | 0.5 to 5 |
| CCCCCCCC(=O)NCCCC[C@H](NC(=O)[C@H](CCCCNC(=O)CN1CCN(CC(=O)O)CCN(CC(=O)O)CCN(CC(=O)O)CC1)NC(=O)CCOCCOCCOCCNC(=O)COc1ccc2c(C(=O)NCC(=O)N3CCC[C@H]3B(O)O)ccnc2c1)C(=O)O [RTX-1355R] | 0.1 to 0.5 |
| CC(C)Cc1ccc(CC(=O)NCCCC[C@H](NC(=O)[C@H](CCCCNC(=O)CN2CCN(CC(=O)O)CCN(CC(=O)O)CCN(CC(=O)O)CC2)NC(=O)CCOCCOCCOCCNC(=O)COc2ccc3c(C(=O)NCC(=O)N4CCC[C@H]4B(O)O)ccnc3c2)C(=O)O)cc1 [RTX-1359R, 2-[2-(3-{2-[2-(2-{2-[4-({2-[(R)-2-(1,2-dihydroxaboro)-1-pyrrolidinyl]-2-oxoethylamino}-carbonyl)-7-quinolyloxy]acetylamino}ethoxy)ethoxy]ethoxy}propionylamino)-6-{2-[4,7,10-tris(carb-oxymethyl)-1,4,7,10-tetraaza-1-cyclododecyl]acetylamino}hexanoylamino]-6-[2-(p-isobutylphenyl)-acetylamino]hexanoic Acid] | < 0.1 |
| CCCCCC(=O)NCCCC[C@H](NC(=O)[C@H](CCCCNC(=O)CN1CCN2CCN(CC1)CC(=O)[O][Cu][O]C(=O)C2)NC(=O)CCOCCOCCOCCNC(=O)COc1ccc2c(C(=O)NCC(=O)N3CCC[C@H]3C#N)ccnc2c1)C(=O)O [RTX-1363S-Cu] | < 0.1 |

Second part, the molecule after the results:

| IC50 [nM] | Molecule |
| --- | --- |
| 0.1 to 0.5 | CCCC(=O)NCCCC[C@H](NC(=O)[C@H](CCCCNC(=O)CN1CCN(CC(=O)O)CCN(CC(=O)O)CC1)NC(=O)CCOCCOCCOCCNC(=O)COc1ccc2c(C(=O)NCC(=O)N3CCC[C@H]3C#N)ccnc2c1)C(=O)O [RTX-1340S] |
| 0.1 to 0.5 | CCCC(=O)NCCCC[C@H](NC(=O)[C@H](CCCCNC(=S)Nc1ccc(CC2CN(CC(=O)O)CCN(CC(=O)O)CCN2CC(=O)O)cc1)NC(=O)CCOCCOCCOCCNC(=O)COc1ccc2c(C(=O)NCC(=O)N3CCC[C@H]3C#N)ccnc2c1)C(=O)O (stereo partly shown) [RTX-1317S] |
| < 0.1 | CC(=O)NCCCC[C@H](NC(=O)[C@H](CCCCNC(=O)c1ccc(F)c(C#N)c1)NC(=O)CCOCCOCCOCCNC(=O)COc1ccc2c(C(=O)NCC(=O)N3CCC[C@H]3C#N)ccnc2c1)C(=O)O [RTX-1324S, (S)-2-[(S)-2-(3-{2-[2-(2-{2-[4-({2-[(S)-2-Cyano-1-pyrrolidinyl]-2-oxoethylamino}carbonyl)-7-quinolyloxy]acetylamino}ethoxy)ethoxy]ethoxy}propionylamino)-6-(3-cyano-4-fluorobenzoylamino)hexanoylamino]-6-acetylaminohexanoic Acid] |
| < 0.1 | CCCCCCCC(=O)NCCCC[C@H](NC(=O)[C@H](CCCCNC(=O)CN1CCN(CC(=O)O)CCN(CC(=O)O)CCN(CC(=O)O)CC1)NC(=O)CCOCCOCCOCCNC(=O)COc1ccc2c(C(=O)NCC(=O)N3CCC[C@H]3C#N)ccnc2c1)C(=O)O [RTX-1350S] |
| < 0.1 | CCCCCC(=O)NCCCC[C@H](NC(=O)[C@H](CCCCNC(=S)Nc1ccc(CC2CN(CC(=O)O)CCN(CC(=O)O)CCN2CC(=O)O)cc1)NC(=O)CCOCCOCCOCCNC(=O)COc1ccc2c(C(=O)NCC(=O)N3CCC[C@H]3C#N)ccnc2c1)C(=O)O (stereo partly shown) [RTX-1318S] |
| 0.1 to 0.5 | CC(=O)NCCCC[C@H](NC(=O)[C@H](CCCCNC(=O)CN1CCN(CC(=O)O)CCN(CC(=O)O)CCN(CC(=O)O)CC1)NC(=O)CCOCCOCCOCCNC(=O)COc1ccc2c(C(=O)NCC(=O)N3CCC[C@H]3C#N)ccnc2c1)C(=O)O [RTX-1353S] |
| < 0.1 | CCCCCC(=O)NCCCC[C@H](NC(=O)[C@H](CCCCNC(=O)CN1CCN(CC(=O)O)CCN(CC(=O)O)CC1)NC(=O)CCOCCOCCOCCNC(=O)COc1ccc2c(C(=O)NCC(=O)N3CCC[C@H]3C#N)ccnc2c1)C(=O)O [RTX-1363S, 2,2′-(7-((S)-17-(((S)-1-carboxy-5-hexanamidopentyl)carbamoyl)-1-((4-((2-((S)-2-cyanopyrrolidin-1-yl)-2-oxoethyl)carbamoyl)quinolin-7-yl)oxy)-2,15,23-trioxo-6,9,12-trioxa-3,16,22-triazatetracosan-24-yl)-1,4,7-triazonane-1,4-diyl)diacetic Acid] |
| < 0.1 | CCCCCC(=O)NCCCC[C@H](NC(=O)[C@H](CCCCNC(=O)CN1CCN(CC(=O)O)CCN(CC(=O)O)CCN(CC(=O)O)CC1)NC(=O)CCOCCOCCOCCNC(=O)COc1ccc2c(C(=O)NCC(=O)N3CCC[C@H]3B(O)O)ccnc2c1)C(=O)O [RTX-1361R] |
| < 0.1 | CCCCCC(=O)NCCCC[C@H](NC(=O)[C@H](CCCCNC(=O)CN1CCN(CC(=O)O)CCN(CC(=O)O)CCN(CC(=O)O)CC1)NC(=O)CCOCCOCCOCCNC(=O)COc1ccc2c(C(=O)NCC(=O)N3CCC[C@H]3C#N)ccnc2c1)C(=O)O [RTX-1360S] |
| 0.1 to 0.5 | CC(C)Cc1ccc(CC(=O)NCCCC[C@H](NC(=O)[C@H](CCCCNC(=S)Nc2ccc(CCOc3cc(CN4CCOCCOCCN(Cc5cccc(C(=O)O)n5)CCOCCOCC4)nc(C(=O)O)c3)cc2)NC(=O)CCOCCOCCOCCNC(=O)COc2ccc3c(C(=O)NCC(=O)N4CCC[C@H]4B(O)O)ccnc3c2)C(=O)O)cc1 [RTX-1399R, 4-(4-(3-((S)-1-((4-((2-((R)-2-boronopyrrolidin-1-yl)-2-oxoethyl)carbamoyl)quinolin-7-yl)oxy)-17-(((S)-1-carboxy-5-(2-(4-isobutylphenyl)acetamido)pentyl)carbamoyl)-2,15-dioxo-6,9,12-trioxa-3,16-diazahenicosan-21-yl)thioureido)phenethoxy)-6-((16-((6-carboxypyridin-2-yl)methyl)-1,4,10,13-tetraoxa-7,16-diazacyclooctadecan-7-yl)methyl)picolinic acid] |
| < 0.1 | CC(C)Cc1ccc(CC(=O)NCCCC[C@H](NC(=O)[C@H](CCCCNC(=O)CN2CCN(CC(=O)O)CCN(CC(=O)O)CCN(CC(=O)O)CC2)NC(=O)CCOCCOCCOCCNC(=O)COc2ccc3c(C(=O)NCC(=O)N4CCC[C@H]4C#N)ccnc3c2)C(=O)O)cc1 [RTX-1354S] |
| 0.1 to 0.5 | CC(=O)NCCCC[C@H](NC(=O)[C@H](CCCCNC(=S)Nc1ccc(CC2CN(CC(=O)O)CCN(CC(=O)O)CCN2CC(=O)O)cc1)NC(=O)CCOCCOCCOCCNC(=O)COc1ccc2c(C(=O)NCC(=O)N3CCC[C@H]3B(O)O)ccnc2c1)C(=O)O (stereo partly shown) [RTX-1319R] |

Biological target: T1, FAP
Experiment: surface plasmon resonance assay
Format: binding
Conditions: read-out: affinity

| Molecule | Kd [nM] |
| --- | --- |
| CN(CCCN1CCN(C(=O)CN2CCN(CC(=O)O)CCN(CC(=O)O)CCN(CC(=O)O)CC2)CC1)c1ccc2nccc(C(=O)NCC(=O)N3CC(F)(F)C[C@H]3C#N)c2c1 [FAP-46] | 0.255 |
